Test results published in PMC11167021, “Discovery of a new class of cell-penetrating peptides by novel phage display platform” (Scientific Reports, 2024).

How the values were obtained:
HEK cells = assay: Internalization of peptides on phage by confocal microscopy; type: cell-based; conditions: peptide displayed on phage, compared with ORD 5 phage pools
Source text: Confocal microscopy was used to investigate the internalization and cytoplasmic localization of the selected peptides on phage. First, we used the phage pool. […] Some of these peptides had been identified from the selection against all three cell lines and some were cell-type selective. […] Representative images showing different internalization levels of NNJA peptides on phage were shown in Supplementary Fig. S6. Confirmation of internalization for select peptides was obtained using the same approach in Caco2 cells (Supplementary Figs. S7, S8).
Cells were fixed with 4% paraformaldehyde (PFA) on ice for 20 min after the washing steps. Fixed cells were washed with PBS for three times to remove any excess PFA, and followed by 1 h blocking in 3% bovine serum albumin (BSA) in Tris buffer saline (TBS) with 0.2% triton X-100, and antibodies staining in TBS with 0.2% triton X-100. Primary antibodies were incubated with cell samples overnight at 4 °C. Following PBS washes, species-specific Alexa Fluor 488, Alexa Fluor 568, and/or Alexa Fluor 647-coupled secondary antibodies were used for signal detection. Imaging data collection was conducted on an LSM800 (Zeiss) confocal microscope, using a 40× (NA 1.1 W LD C-Apochromat, Zeiss) objective. Controls treated with secondary antibody were shown negative or undetectable signal.

Caco2 cells = conditions: peptide displayed on phage PIII, streptavidin-HRP on pIX; n = 2
Experimental: (§1) We further evaluated the ability of NNJA peptides on phage to deliver functional groups into HEK-239 and CaCo2 cells by displaying an Avi-tag peptide on the minor coat protein pIX. Post biotinylation of Avi-tag by BirA, streptavidin-HRP was added to phage, forming a phage-protein complex (Avi[bio]/CPP-SA-HRP).
(§2) A randomly picked peptide ([…]) from the naïve library was incorporated in the setting and served as one of the negative controls. The method was described previously. Cell viability was evaluated in a replicated experimental group under the same assay condition using CellTiter-Glo luminescent cell viability assay from Promega.

HEK-239 cells = assay: Double-displayed phage carrying streptavidin-HRP, cellular uptake detected with TMB; type: cell-based; conditions: peptide displayed on phage PIII, streptavidin-HRP on pIX; n = 2
Experimental: as §1, §2

| Sequence | phage internalization in HEK cells, M13 antibody signal (HEK cells) | cellular uptake of phage-protein complex (Avi[bio]/CPP-SA-HRP), TMB signal, CaCo2 cells (Caco2 cells) | cellular uptake of phage-protein complex (Avi[bio]/CPP-SA-HRP), TMB signal, HEK-239 cells (HEK-239 cells) |
| --- | --- | --- | --- |
| GRKKRRQRRRPQ [Tat48–60, classic CPP] | lower signal intensity | – | – |
| TVSRELTPL (phage displayed) [random peptide] | – | minimum signal | minimum signal |
